Experimental data as given in ChEMBL document CHEMBL1949643, “Dactylomelatriol, a biogenetically intriguing omphalane-derived marine sesquiterpene” (2012).

Assays:
Candida albicans = assay: Antifungal activity against Candida albicans SC5314 by broth macrodilution method; format: functional
Bacillus cereus = assay: Antimicrobial activity against Bacillus cereus ATCC 21772 by broth macrodilution method; format: functional

Row | MIC (Candida albicans) [µg/mL] | MIC (Bacillus cereus) [µg/mL] | Structure (SMILES)
1 | > 50 | > 50 | C=C1C[C@@H](O)[C@@H](Br)C(C)(C)[C@]12CC[C@@](C)(Br)[C@H](Cl)C2 [OBTUSOL]
2 | – | > 50 | C=C1C[C@H](O)[C@H](Br)C(C)(C)[C@@]12CCC(C)=C(Cl)C2 [ELATOL]
